Measurements reported in patent publication US20060223994A1, “Novel polymorph of Quetiapine fumarate and a process for its preparation” (Divi's Laboratories Limited, priority 2005, published 2006).

Legend:
[1] = Stability of Form IV under grinding (powder XRD and FT-IR after grinding); details: ground in glass pestle and mortar for 15 min
[2] = Stability on melting and cooling (air; NMR, IR, HPLC comparison)

SMILES: OCCOCCN1CCN(C2=Nc3ccccc3Sc3ccccc32)CC1 [Form IV]
- XRD pattern and FT-IR spectrum of the material after grinding [1]: identical to the form IV
- chemical nature after heating ([2]; confirmed by NMR, IR, HPLC retention time and assay versus sample prepared per U.S. Pat. No. 4,879,288): does not also alter its chemical nature
- oxidative degradation on melting and cooling ([2]; melting and cooling in air): no significant degradation
